Converted amounts (≈) assume the structure as drawn. Where two headings read alike, the source gives them in different places. Numbered stars: 1 amine (or outer) side, 2 acyl side, 3 side chain; on linkers, the order of the positions; unused ones are H or OH. Bridge positions count the residues as written; N and C are the ends. Peptide text beside a SMILES is read from it. * marks the point of attachment. C20 diacid = O=C(O)CCCCCCCCCCCCCCCCCCC(=O)*; γGlu = O=C(O)[C@H](CCC(=O)[*:2])N[*:1]
Experiments:
[1] = target: T1, rat amylin receptor (rat calcitonin receptor + rat RAMP 3) (Rattus norvegicus, UniProt P32214+Q9JJ73); test: ASSAY (VI) binding to the rat amylin receptor; conditions: for IC50: binding to rat amylin receptor, read-out: rAmylin-R bind IC50
T1 construct: expressed in transfected cells; host or cells: BHK tk'ts 13 (transient, FuGENE 6), membranes
T1 sequence (P32214 25-479 isoform P32214-2 limits assumed): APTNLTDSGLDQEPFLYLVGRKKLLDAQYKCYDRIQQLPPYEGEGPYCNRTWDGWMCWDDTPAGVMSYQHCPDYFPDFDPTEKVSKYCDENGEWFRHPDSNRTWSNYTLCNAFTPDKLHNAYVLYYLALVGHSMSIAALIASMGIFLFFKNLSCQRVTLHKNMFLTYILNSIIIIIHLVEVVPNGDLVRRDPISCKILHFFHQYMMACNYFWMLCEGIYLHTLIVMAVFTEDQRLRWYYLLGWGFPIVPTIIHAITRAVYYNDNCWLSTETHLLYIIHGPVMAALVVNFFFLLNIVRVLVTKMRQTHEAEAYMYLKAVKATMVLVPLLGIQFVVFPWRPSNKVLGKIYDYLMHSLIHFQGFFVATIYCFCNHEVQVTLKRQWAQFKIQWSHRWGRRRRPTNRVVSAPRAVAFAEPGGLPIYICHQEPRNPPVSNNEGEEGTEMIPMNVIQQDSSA
T1 sequence (Q9JJ73 23-147 partner): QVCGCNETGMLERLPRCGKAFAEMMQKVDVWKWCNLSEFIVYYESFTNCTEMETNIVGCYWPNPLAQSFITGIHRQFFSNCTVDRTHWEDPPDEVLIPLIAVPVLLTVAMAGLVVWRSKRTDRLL
Method in brief: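 This assay measured binding to the rat amylin receptor. BHK tk′ts 13 cells were transiently transfected with the rat calcitonin receptor using FuGENE® 6 (Roche), following the manufacturer's recommendations. About 48 hours after transfection, the cells were harvested and membranes were prepared from them for the binding determination.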

[2] = ASSAY (IV) determination of solubility; type: physicochemical
Method in brief: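 Dissolve polypeptide in water ([…] stock); combine 1:1 with each 100 mM buffer (glycylglycine pH 3.0/4.0/5.0; bistrispropane pH 6.0/6.5/7.0/7.5/8.0); hold 18 hours at room temperature; centrifuge; quantify polypeptide by UPLC.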

[3] = target: T2, human amylin 3(a) receptor (human calcitonin receptor + RAMP-3) in BHK570 cells (Homo sapiens, UniProt O60896+P30988); test: ASSAY (II)a functional assay, human amylin receptor (CRE luciferase); type: cell-based
T2 construct: expressed in transfected cells
Method in brief: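 Ligand exposure 3 h at 37 °C, 5% CO2 in DMEM with 10% FBS, 10 mM Hepes pH 7.4. cAMP-driven luciferase read by luminescence after 30 min LucLite at room temperature.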

[4] = Table 7, rat binding selectivity, rCTR IC50 / rAmylin-R IC50
[5] = Table 7a (preferred compounds), rat binding selectivity, rCTR IC50 / rAmylin-R IC50
[6] = ratio of rCTR bind IC50 to rAmylin-R bind IC50
[7] = bistrispropane buffer, pH 6.5, read-out: Solubility pH 6.5 Concentration
[8] = bistrispropane buffer, pH 7.5, read-out: Solubility pH 7.5 Concentration
[9] = bistrispropane buffer, pH 6.0, read-out: Solubility pH 6.0 Concentration
[10] = bistrispropane buffer, pH 7.0, read-out: Solubility pH 7.0 Concentration
[11] = bistrispropane buffer, pH 8.0, read-out: Solubility pH 8.0 Concentration
[12] = glycylglycine buffer, pH 3.0, read-out: Solubility pH 3.0 Concentration
[13] = glycylglycine buffer, pH 4.0, read-out: Solubility pH 4.0 Concentration
[14] = glycylglycine buffer, pH 5.0, read-out: Solubility pH 5.0 Concentration
[15] = hCTR funct. EC50 divided by hAmylin-R funct. EC50
[16] = hCTR funct. EC50 over hAmylin-R funct. EC50
[17] = human functional selectivity: hCTR funct. EC50 / hAmylin-R funct. EC50

T2 sequence (O60896 24-148): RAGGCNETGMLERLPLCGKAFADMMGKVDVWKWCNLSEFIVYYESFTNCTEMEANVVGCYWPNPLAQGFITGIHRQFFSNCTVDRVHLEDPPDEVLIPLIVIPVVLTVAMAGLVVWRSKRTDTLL
T2 sequence (P30988 25-474): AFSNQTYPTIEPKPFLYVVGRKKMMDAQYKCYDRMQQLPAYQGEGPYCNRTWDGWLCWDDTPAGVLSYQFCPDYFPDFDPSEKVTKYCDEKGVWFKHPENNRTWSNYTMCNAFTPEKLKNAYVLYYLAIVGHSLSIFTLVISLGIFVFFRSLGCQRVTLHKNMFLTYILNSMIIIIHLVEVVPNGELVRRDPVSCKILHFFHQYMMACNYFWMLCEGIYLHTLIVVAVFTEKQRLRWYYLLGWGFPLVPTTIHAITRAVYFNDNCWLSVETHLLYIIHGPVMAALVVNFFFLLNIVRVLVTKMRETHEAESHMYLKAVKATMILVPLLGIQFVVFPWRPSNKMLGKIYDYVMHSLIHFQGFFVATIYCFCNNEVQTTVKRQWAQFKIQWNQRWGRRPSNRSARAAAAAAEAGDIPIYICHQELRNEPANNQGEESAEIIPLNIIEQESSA

IC50 ([1]; Table 7) [nM] | Ratio rCT/rAmylin binding [1, 4] | Ratio rCT/rAmylin binding [1, 5] | Ratio rCT/rAmylin binding [1, 6] | solubility at 18 h [2, 7] [µM] | solubility at 18 h [2, 8] [µM] | solubility at 18 h [2, 9] [µM] | solubility at 18 h [2, 10] [µM] | solubility at 18 h [2, 11] [µM] | solubility at 18 h [2, 12] [µM] | solubility at 18 h [2, 13] [µM] | solubility at 18 h [2, 14] [µM] | Ratio hCT/hAmylin funct. [3, 15] | Ratio hCT/hAmylin funct. [3, 16] | Ratio hCT/hAmylin funct. [3, 17] | SMILES
0.322 | 67.0 | 67.0 | 67.0 | ≥ 200 | ≥ 200 | ≥ 200 | ≥ 200 | ≥ 200 | ≥ 200 | ≥ 200 | ≥ 200 | 8.7 | 8.7 | 8.7 | CC[C@H](C)[C@H](NC(=O)[C@H](C)NC(=O)CNC(=O)[C@H](Cc1ccccc1)NC(=O)[C@H](CC(N)=O)NC(=O)[C@@H]1CCCN1C(=O)[C@H](CO)NC(=O)[C@H](CO)NC(=O)[C@H](Cc1c[nH]cn1)NC(=O)[C@H](CCCNC(=N)N)NC(=O)[C@H](CC(C)C)NC(=O)[C@H](Cc1ccccc1)NC(=O)[C@H](CC(N)=O)NC(=O)[C@H](C)NC(=O)[C@H](CC(C)C)NC(=O)[C@H](CCCNC(=N)N)NC(=O)[C@H](CCC(N)=O)NC(=O)[C@@H](NC(=O)[C@H](C)NC(=O)[C@@H]1CSSC[C@H](NC(=O)[C@H](CCCCN)NC(=O)CC[C@H](NC(=O)CCCCCCCCCCCCCCCCCCC(=O)O)C(=O)O)C(=O)N[C@@H](CC(N)=O)C(=O)N[C@@H]([C@@H](C)O)C(=O)N[C@@H](C)C(=O)N[C@@H]([C@@H](C)O)C(=O)N1)[C@@H](C)O)C(=O)N1CCC[C@H]1C(=O)N[C@@H](CO)C(=O)N[C@@H](CO)C(=O)N[C@H](C(=O)N[C@@H](CC(N)=O)C(=O)N[C@H](C(=O)NCC(=O)N1CCC[C@H]1C(=O)N[C@@H](CCC(=O)O)C(=O)N[C@H](C(=O)N[C@@H](Cc1ccc(O)cc1)C(N)=O)[C@@H](C)O)C(C)C)[C@@H](C)O [Example 29] ({C20 diacid-γGlu}-KCNTATCATQRLANFLRHSSPNFGAIPSSTNVGPETY-NH2; disulfide 2-7)
0.619 | 42.8 | 42.8 | 42.8 | ≥ 200 | ≥ 200 | ≥ 200 | ≥ 200 | ≥ 200 | ≥ 200 | ≥ 200 | ≥ 200 | 6.4 | 6.4 | 6.4 | CC[C@H](C)[C@H](NC(=O)[C@H](C)NC(=O)CNC(=O)[C@H](Cc1ccccc1)NC(=O)[C@H](CC(N)=O)NC(=O)[C@@H]1CCCN1C(=O)[C@H](CO)NC(=O)[C@H](CO)NC(=O)[C@H](Cc1c[nH]cn1)NC(=O)[C@H](CCCNC(=N)N)NC(=O)[C@H](CC(C)C)NC(=O)[C@H](Cc1ccccc1)NC(=O)[C@H](CCC(=O)O)NC(=O)[C@H](C)NC(=O)[C@H](CC(C)C)NC(=O)[C@H](CCCNC(=N)N)NC(=O)[C@H](CCC(N)=O)NC(=O)[C@@H](NC(=O)[C@H](C)NC(=O)[C@@H]1CSSC[C@H](NC(=O)[C@H](CCCCN)NC(=O)CC[C@H](NC(=O)CCCCCCCCCCCCCCCCCCC(=O)O)C(=O)O)C(=O)N[C@@H](CC(N)=O)C(=O)N[C@@H]([C@@H](C)O)C(=O)N[C@@H](C)C(=O)N[C@@H]([C@@H](C)O)C(=O)N1)[C@@H](C)O)C(=O)N1CCC[C@H]1C(=O)N[C@@H](CO)C(=O)N[C@@H](CO)C(=O)N[C@H](C(=O)N1CCC[C@H]1C(=O)N[C@H](C(=O)NCC(=O)N[C@@H](CO)C(=O)N[C@@H](CC(N)=O)C(=O)N[C@H](C(=O)N[C@@H](Cc1ccc(O)cc1)C(N)=O)[C@@H](C)O)C(C)C)[C@@H](C)O [Example 31] ({C20 diacid-γGlu}-KCNTATCATQRLAEFLRHSSPNFGAIPSSTPVGSNTY-NH2; disulfide 2-7 (inferred))
1.86 | 32.4 | 32.4 | 32.4 | ≥ 200 | ≥ 200 | ≥ 200 | ≥ 200 | ≥ 200 | ≥ 200 | ≥ 200 | ≥ 200 | 6.8 | 6.8 | 6.8 | CC[C@H](C)[C@H](NC(=O)[C@H](C)NC(=O)CNC(=O)[C@H](Cc1ccccc1)NC(=O)[C@H](CC(N)=O)NC(=O)[C@@H]1CCCN1C(=O)[C@H](CO)NC(=O)[C@H](CO)NC(=O)[C@H](Cc1c[nH]cn1)NC(=O)[C@H](CCCNC(=N)N)NC(=O)[C@H](CC(C)C)NC(=O)[C@H](Cc1ccccc1)NC(=O)[C@H](CCC(=O)O)NC(=O)[C@H](C)NC(=O)[C@H](CC(C)C)NC(=O)[C@H](CCCNC(=N)N)NC(=O)[C@H](CCC(N)=O)NC(=O)[C@@H](NC(=O)[C@H](C)NC(=O)[C@@H]1CSSC[C@H](NC(=O)[C@H](CCCCN)NC(=O)CC[C@H](NC(=O)CCCCCCCCCCCCCCCCCCC(=O)O)C(=O)O)C(=O)N[C@@H](CC(N)=O)C(=O)N[C@@H]([C@@H](C)O)C(=O)N[C@@H](C)C(=O)N[C@@H]([C@@H](C)O)C(=O)N1)[C@@H](C)O)C(=O)N1CCC[C@H]1C(=O)N[C@@H](CO)C(=O)N[C@@H](CO)C(=O)N[C@H](C(=O)N[C@@H](CC(N)=O)C(=O)N[C@H](C(=O)NCC(=O)N[C@@H](CCCCN)C(=O)N[C@@H](CC(N)=O)C(=O)N[C@H](C(=O)N[C@@H](Cc1ccc(O)cc1)C(N)=O)[C@@H](C)O)C(C)C)[C@@H](C)O [Example 36] ({C20 diacid-γGlu}-KCNTATCATQRLAEFLRHSSPNFGAIPSSTNVGKNTY-NH2; disulfide 2-7 (inferred))
0.33 | 141.8 | 141.8 | 141.8 | ≥ 200 | 106 (≈ 473 µg/mL) | ≥ 200 | 186 (≈ 831 µg/mL) | 145 (≈ 648 µg/mL) | ≥ 200 | ≥ 200 | ≥ 200 | 10.2 | 10.2 | 10.2 | CC[C@H](C)[C@H](NC(=O)[C@H](C)NC(=O)CNC(=O)[C@H](Cc1ccccc1)NC(=O)[C@H](CC(N)=O)NC(=O)[C@@H]1CCCN1C(=O)[C@H](CO)NC(=O)[C@H](CO)NC(=O)[C@H](Cc1c[nH]cn1)NC(=O)[C@H](CCCNC(=N)N)NC(=O)[C@H](CC(C)C)NC(=O)[C@H](Cc1ccccc1)NC(=O)[C@H](CC(N)=O)NC(=O)[C@H](C)NC(=O)[C@H](CC(C)C)NC(=O)[C@H](CCCNC(=N)N)NC(=O)[C@H](CCC(N)=O)NC(=O)[C@@H](NC(=O)[C@H](C)NC(=O)[C@@H]1CSSC[C@H](NC(=O)[C@H](CCCNC(=N)N)NC(=O)CNC(=O)CC[C@H](NC(=O)CCCCCCCCCCCCCCCCCCC(=O)O)C(=O)O)C(=O)N[C@@H](CC(N)=O)C(=O)N[C@@H]([C@@H](C)O)C(=O)N[C@@H](C)C(=O)N[C@@H]([C@@H](C)O)C(=O)N1)[C@@H](C)O)C(=O)N1CCC[C@H]1C(=O)N[C@@H](CO)C(=O)N[C@@H](CO)C(=O)N[C@H](C(=O)N[C@@H](CC(N)=O)C(=O)N[C@H](C(=O)NCC(=O)N[C@@H](CO)C(=O)N[C@@H](CC(N)=O)C(=O)N[C@H](C(=O)N[C@@H](Cc1ccc(O)cc1)C(N)=O)[C@@H](C)O)C(C)C)[C@@H](C)O [Example 46] ({C20 diacid-γGlu}-GRCNTATCATQRLANFLRHSSPNFGAIPSSTNVGSNTY-NH2; disulfide 3-8 (inferred))
